In patent US10377753B2, “Substituted 4-azaindoles and their use as GluN2B receptor modulators” (Janssen Pharmaceutica NV, priority 2015, dated 2019):

Target: cloned human NR1/NR2B ion channels (Homo sapiens (Human), UniProt Q05586+Q13224)
Assay: HNR2BC: effects of test articles on cloned human NR1/NR2B ion channels expressed in mammalian cells (FLIPR calcium flux)
Format: cell-based
Details: cloned human NR1/NR2B ion channels, Table 5
Outline: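 In a stable Tet-On-induced cell line expressing human GluN1/GluN2B, Calcium 5-loaded cells were preincubated 5 min with compound, then stimulated 5 min with glutamate at ~EC80 plus 10 μM glycine, in pH 7.4 HEPES buffer. FLIPR calcium fluorescence was normalized to control wells.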

cloned human NR1/NR2B ion channels, sequence (Q13224 27-1484, other chains not shown): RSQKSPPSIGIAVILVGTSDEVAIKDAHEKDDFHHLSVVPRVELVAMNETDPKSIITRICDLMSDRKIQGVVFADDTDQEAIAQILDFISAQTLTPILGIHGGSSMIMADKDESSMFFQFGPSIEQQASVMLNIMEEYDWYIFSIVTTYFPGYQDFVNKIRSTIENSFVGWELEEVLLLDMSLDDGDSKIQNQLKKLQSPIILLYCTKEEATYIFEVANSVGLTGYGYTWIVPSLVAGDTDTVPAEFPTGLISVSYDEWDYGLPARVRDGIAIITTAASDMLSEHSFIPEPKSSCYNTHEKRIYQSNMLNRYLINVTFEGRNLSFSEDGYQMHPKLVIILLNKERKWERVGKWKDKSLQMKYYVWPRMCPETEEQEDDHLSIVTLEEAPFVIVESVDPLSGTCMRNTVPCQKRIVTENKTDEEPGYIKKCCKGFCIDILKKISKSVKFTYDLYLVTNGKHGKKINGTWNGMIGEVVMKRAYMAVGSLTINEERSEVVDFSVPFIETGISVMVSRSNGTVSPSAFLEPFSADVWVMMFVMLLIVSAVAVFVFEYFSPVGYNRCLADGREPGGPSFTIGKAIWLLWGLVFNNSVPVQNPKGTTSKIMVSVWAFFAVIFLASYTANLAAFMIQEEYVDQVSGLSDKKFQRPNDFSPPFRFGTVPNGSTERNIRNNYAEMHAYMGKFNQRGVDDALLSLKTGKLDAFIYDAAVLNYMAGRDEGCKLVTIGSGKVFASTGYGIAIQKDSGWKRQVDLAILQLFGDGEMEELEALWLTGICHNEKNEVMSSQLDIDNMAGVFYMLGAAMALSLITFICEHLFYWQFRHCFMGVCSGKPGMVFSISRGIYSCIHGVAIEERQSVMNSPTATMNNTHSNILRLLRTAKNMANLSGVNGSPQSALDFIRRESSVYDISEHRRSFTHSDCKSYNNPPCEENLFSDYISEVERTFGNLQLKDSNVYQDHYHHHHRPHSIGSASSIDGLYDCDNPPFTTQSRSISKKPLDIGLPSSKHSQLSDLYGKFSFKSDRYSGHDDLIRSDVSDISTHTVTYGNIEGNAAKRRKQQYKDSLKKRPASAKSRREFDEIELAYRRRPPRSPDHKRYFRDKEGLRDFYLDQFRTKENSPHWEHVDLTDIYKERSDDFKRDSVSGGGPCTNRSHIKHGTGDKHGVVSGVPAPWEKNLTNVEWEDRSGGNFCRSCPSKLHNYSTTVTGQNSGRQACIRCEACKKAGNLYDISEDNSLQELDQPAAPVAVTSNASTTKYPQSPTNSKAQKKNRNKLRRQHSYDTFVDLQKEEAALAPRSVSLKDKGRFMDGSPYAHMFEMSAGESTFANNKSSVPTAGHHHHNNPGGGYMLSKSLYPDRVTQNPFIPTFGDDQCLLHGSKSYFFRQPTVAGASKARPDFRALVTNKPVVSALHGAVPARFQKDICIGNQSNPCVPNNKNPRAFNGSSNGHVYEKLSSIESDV

| Compound | IC50 [µM] |
| --- | --- |
| Cc1cn(CC(=O)N(C)C)c2cc(-c3ccccc3)cnc12 [Example 576, N,N-Dimethyl-2-(3-methyl-6-phenyl-pyrrolo[3,2-b]pyridin-1-yl)acetamide] | 0.1 |
| CCN(C)C(=O)Cn1cc(C)c2ncc(-c3ccccc3)cc21 [Example 577, N-Ethyl-N-methyl-2-(3-methyl-6-phenyl-pyrrolo[3,2-b]pyridin-1-yl)acetamide] | 0.2 |
| Cc1cn(CC(=O)N2CC(F)C2)c2cc(-c3ccccc3)cnc12 [Example 578, 1-(3-Fluoroazetidin-1-yl)-2-(3-methyl-6-phenyl-pyrrolo[3,2-b]pyridin-1-yl)ethanone] | 0.126 |
| Cc1cn(CC(=O)N(C)C)c2cc(-c3ccc(F)c(F)c3F)cnc12 [Example 583, N,N-Dimethyl-2-[3-methyl-6-(2,3,4-trifluorophenyl)pyrrolo[3,2-b]pyridin-1-yl]acetamide] | 0.126 |
| CCN(C)C(=O)Cn1cc(C)c2ncc(-c3ccc(F)c(F)c3F)cc21 [Example 584, N-Ethyl-N-methyl-2-[3-methyl-6-(2,3,4-trifluorophenyl)pyrrolo[3,2-b]pyridin-1-yl]acetamide] | 0.398 |
| Cc1cn(CC(=O)N2CCC2)c2cc(-c3cccc(C(F)(F)F)c3F)cnc12 [Example 585, 1-(Azetidin-1-yl)-2-[6-[2-fluoro-3-(trifluoromethyl)phenyl]-3-methyl-pyrrolo[3,2-b]pyridin-1-yl]ethanone] | 0.251 |
| Cc1cn(CC(=O)N(C)C)c2cc(-c3cccc(C(F)(F)F)c3F)cnc12 [Example 586, 2-[6-[2-Fluoro-3-(trifluoromethyl)phenyl]-3-methyl-pyrrolo[3,2-b]pyridin-1-yl]-N,N-dimethyl-acetamide] | 0.126 |
| CCN(C)C(=O)Cn1cc(C)c2ncc(-c3cccc(C(F)(F)F)c3F)cc21 [Example 587, N-Ethyl-2-[6-[2-fluoro-3-(trifluoromethyl)phenyl]-3-methyl-pyrrolo[3,2-b]pyridin-1-yl]-N-methyl-acetamide] | 0.251 |
| Cc1cn(CC(=O)N2CC(F)C2)c2cc(-c3ccc(F)c(F)c3F)cnc12 [Example 588, 1-(3-Fluoroazetidin-1-yl)-2-[3-methyl-6-(2,3,4-trifluorophenyl)pyrrolo[3,2-b]pyridin-1-yl]ethanone] | 0.631 |
| Cc1cn(CC(=O)N2CC(F)C2)c2cc(-c3cccc(C(F)(F)F)c3F)cnc12 [Example 589, 1-(3-Fluoroazetidin-1-yl)-2-[6-[2-fluoro-3-(trifluoromethyl)phenyl]-3-methyl-pyrrolo[3,2-b]pyridin-1-yl]ethanone] | 0.126 |
| Cc1cn(CC(=O)N2CCCC2)c2cc(-c3cccc(C(F)(F)F)c3F)cnc12 [Example 590, 2-[6-[2-Fluoro-3-(trifluoromethyl)phenyl]-3-methyl-pyrrolo[3,2-b]pyridin-1-yl]-1-pyrrolidin-1-yl-ethanone] | 0.316 |
| Cc1cn(CC(=O)N2CCCC2)c2cc(-c3ccc(F)c(F)c3F)cnc12 [Example 591, 2-[3-Methyl-6-(2,3,4-trifluorophenyl)pyrrolo[3,2-b]pyridin-1-yl]-1-pyrrolidin-1-yl-ethanone] | 0.126 |
| Cc1cn(CC(=O)N2CCC2)c2cc(-c3ccccc3F)cnc12 [Example 592, 1-(Azetidin-1-yl)-2-[6-(2-fluorophenyl)-3-methyl-pyrrolo[3,2-b]pyridin-1-yl]ethanone] | 0.126 |
| Cc1cn(CC(=O)N(C)C)c2cc(-c3ccccc3F)cnc12 [Example 593, 2-[6-(2-Fluorophenyl)-3-methyl-pyrrolo[3,2-b]pyridin-1-yl]-N,N-dimethyl-acetamide] | 0.251 |
| CCN(C)C(=O)Cn1cc(C)c2ncc(-c3ccccc3F)cc21 [Example 594, N-Ethyl-2-[6-(2-fluorophenyl)-3-methyl-pyrrolo[3,2-b]pyridin-1-yl]-N-methyl-acetamide] | 0.794 |
| Cc1cn(CC(=O)N2CC(F)(F)C2)c2cc(-c3cccc(C(F)(F)F)c3F)cnc12 [Example 595, 1-(3,3-Difluoroazetidin-1-yl)-2-[6-[2-fluoro-3-(trifluoromethyl)phenyl]-3-methyl-pyrrolo[3,2-b]pyridin-1-yl]ethanone] | 0.251 |
| Cc1cn(CC(=O)N2CC(F)(F)C2)c2cc(-c3ccccc3F)cnc12 [Example 597, 1-(3,3-Difluoroazetidin-1-yl)-2-[6-(2-fluorophenyl)-3-methyl-pyrrolo[3,2-b]pyridin-1-yl]ethanone] | 0.316 |
| Cc1cc(-c2cnc3c(Cl)cn(CC(=O)N(C)C)c3c2)c(C)s1 [Example 599, 2-[3-Chloro-6-(2,5-dimethyl-3-thienyl)pyrrolo[3,2-b]pyridin-1-yl]-N,N-dimethyl-acetamide] | 0.1 |
| CN(C)C(=O)Cn1cc(Cl)c2ncc(-c3cccc(C(F)(F)F)c3)cc21 [Example 600, 2-[3-Chloro-6-[3-(trifluoromethyl)phenyl]pyrrolo[3,2-b]pyridin-1-yl]-N,N-dimethyl-acetamide] | 0.0794 |
| CN(C)C(=O)Cn1cc(Cl)c2ncc(-c3cccc(C(F)(F)F)n3)cc21 [Example 601, 2-[3-Chloro-6-[6-(trifluoromethyl)-2-pyridyl]pyrrolo[3,2-b]pyridin-1-yl]-N,N-dimethyl-acetamide] | 0.126 |
| CN(C)C(=O)Cn1ccc2ncc(-c3cc4ccccc4s3)cc21 [Example 604, 2-[6-(Benzothiophen-2-yl)pyrrolo[3,2-b]pyridin-1-yl]-N,N-dimethyl-acetamide] | 0.2 |
| FC(F)(F)c1cccc(-c2cnc3ccn(Cc4cccnn4)c3c2)c1 [Example 613, 1-(Pyridazin-3-ylmethyl)-6-[3-(trifluoromethyl)phenyl]pyrrolo[3,2-b]pyridine] | 2.51 |

Results, then the compound that gave them:

| IC50 [µM] | Compound |
| --- | --- |
| 0.0631 | Cc1cn(CC(=O)N2CC(F)(F)C2)c2cc(-c3ccccc3)cnc12 [Example 579, 1-(3,3-Difluoroazetidin-1-yl)-2-(3-methyl-6-phenyl-pyrrolo[3,2-b]pyridin-1-yl)ethanone] |
| 0.0794 | Cc1cc(-c2cnc3c(C)cn(CC(=O)N4CC(F)C4)c3c2)ccc1F [Example 580, 1-(3-Fluoroazetidin-1-yl)-2-[6-(4-fluoro-3-methyl-phenyl)-3-methyl-pyrrolo[3,2-b]pyridin-1-yl]ethanone] |
| 0.0794 | Cc1cccc(-c2cnc3c(C)cn(CC(=O)N4CCC4)c3c2)c1 [Example 581, 1-(Azetidin-1-yl)-2-[3-methyl-6-(m-tolyl)pyrrolo[3,2-b]pyridin-1-yl]ethanone] |
| 0.0398 | Cc1cn(CC(=O)N2CCC2)c2cc(-c3ccc(F)c(F)c3F)cnc12 [Example 582, 1-(Azetidin-1-yl)-2-[3-methyl-6-(2,3,4-trifluorophenyl)pyrrolo[3,2-b]pyridin-1-yl]ethanone] |
| 0.0501 | Cc1cn(CC(=O)N2CC(F)(F)C2)c2cc(-c3ccc(F)c(F)c3F)cnc12 [Example 596, 1-(3,3-Difluoroazetidin-1-yl)-2-[3-methyl-6-(2,3,4-trifluorophenyl)pyrrolo[3,2-b]pyridin-1-yl]ethanone] |
| 0.0398 | Cc1cn(CC(=O)N2CC(F)C2)c2cc(-c3cc(F)c(F)c(F)c3)cnc12 [Example 598, 1-(3-Fluoroazetidin-1-yl)-2-[3-methyl-6-(3,4,5-trifluorophenyl)pyrrolo[3,2-b]pyridin-1-yl]ethanone] |
| 0.01 | Cc1cc(-c2cnc3c(Cl)cn(CC(=O)N(C)C)c3c2)sc1Cl [Example 602, 2-[3-Chloro-6-(5-chloro-4-methyl-2-thienyl)pyrrolo[3,2-b]pyridin-1-yl]-N,N-dimethyl-acetamide] |
| 0.0631 | CN(C)C(=O)Cn1cc(Cl)c2ncc(-c3ccc(C(F)(F)F)s3)cc21 [Example 603, 2-[3-Chloro-6-[5-(trifluoromethyl)-2-thienyl]pyrrolo[3,2-b]pyridin-1-yl]-N,N-dimethyl-acetamide] |
| 0.0631 | CN(C)C(=O)Cn1cc(F)c2ncc(-c3ccc(F)c(C(F)(F)F)c3)cc21 [Example 605, 2-[3-Fluoro-6-[4-fluoro-3-(trifluoromethyl)phenyl]pyrrolo[3,2-b]pyridin-1-yl]-N,N-dimethyl-acetamide] |
| 0.0631 | CN(C)C(=O)Cn1cc(F)c2ncc(-c3cccc(Cl)c3F)cc21 [Example 606, 2-[6-(3-Chloro-2-fluoro-phenyl)-3-fluoro-pyrrolo[3,2-b]pyridin-1-yl]-N,N-dimethyl-acetamide] |
| 0.0398 | Cc1cccc(-c2cnc3c(F)cn(CC(=O)N4CC(F)C4)c3c2)c1 [Example 607, 1-(3-Fluoroazetidin-1-yl)-2-[3-fluoro-6-(m-tolyl)pyrrolo[3,2-b]pyridin-1-yl]ethanone] |
| 0.02 | O=C(Cn1cc(F)c2ncc(-c3ccc(F)c(Cl)c3)cc21)N1CC(F)C1 [Example 608, 2-[6-(3-Chloro-4-fluoro-phenyl)-3-fluoro-pyrrolo[3,2-b]pyridin-1-yl]-1-(3-fluoroazetidin-1-yl)ethanone] |
| 0.01 | CN(C)C(=O)Cn1cc(C(F)(F)F)c2ncc(-c3cc(F)cc(F)c3)cc21 [Example 611, 2-[6-(3,5-Difluorophenyl)-3-(trifluoromethyl)pyrrolo[3,2-b]pyridin-1-yl]-N,N-dimethyl-acetamide] |
| 0.0316 | FC(F)(F)c1cccc(-c2cnc3c(Cl)cn(Cc4cccnc4)c3c2)c1 [Example 612, 3-Chloro-1-(3-pyridylmethyl)-6-[3-(trifluoromethyl)phenyl]pyrrolo[3,2-b]pyridine] |
| 0.0316 | Cc1cc(-c2cnc3c(Cl)cn(Cc4cccnn4)c3c2)ccc1F [Example 614, 3-Chloro-6-(4-fluoro-3-methyl-phenyl)-1-(pyridazin-3-ylmethyl)pyrrolo[3,2-b]pyridine] |
| 0.0251 | FC(F)(F)c1cccc(-c2cnc3c(Cl)cn(Cc4cccnn4)c3c2)c1 [Example 615, 3-Chloro-1-(pyridazin-3-ylmethyl)-6-[3-(trifluoromethyl)phenyl]pyrrolo[3,2-b]pyridine] |
| 0.0316 | Cc1cc(-c2cnc3c(C)cn(CC(=O)N4CCCC4)c3c2)ccc1F [Example 616, 2-[6-(4-Fluoro-3-methyl-phenyl)-3-methyl-pyrrolo[3,2-b]pyridin-1-yl]-1-pyrrolidin-1-yl-ethanone] |
